{
  "source": "patent US10024846B2",
  "about": "“Methods for treating diet-induced obesity by decreasing or inhibiting P2Y2 purinergic receptor expression or activity” (The United States of America as represented by the …, priority 2012, dated 2018)",
  "origin": "cited, not measured here",
  "key": {"P2Y2 receptor": {"target": "P2Y2 receptor", "conditions": "competitive P2Y2 receptor antagonists; values from cited literature"}, "rat P2Y4 receptor": {"target": "rat P2Y4 receptor (Rattus norvegicus, UniProt O35811)", "sequence (O35811 whole entry)": "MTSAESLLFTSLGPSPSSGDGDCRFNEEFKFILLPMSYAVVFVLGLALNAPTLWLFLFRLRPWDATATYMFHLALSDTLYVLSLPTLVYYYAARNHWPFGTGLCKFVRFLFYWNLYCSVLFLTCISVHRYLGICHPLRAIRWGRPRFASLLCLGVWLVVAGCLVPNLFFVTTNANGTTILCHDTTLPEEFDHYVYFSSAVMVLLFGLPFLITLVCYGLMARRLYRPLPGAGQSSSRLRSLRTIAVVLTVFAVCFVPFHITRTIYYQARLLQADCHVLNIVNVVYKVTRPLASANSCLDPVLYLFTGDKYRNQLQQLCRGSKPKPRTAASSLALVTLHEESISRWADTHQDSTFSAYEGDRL", "conditions": "Herold et al. 2004"}, "human P2Y4 receptor": {"target": "human P2Y4 receptor (Homo sapiens, UniProt P51582)", "sequence (P51582 whole entry)": "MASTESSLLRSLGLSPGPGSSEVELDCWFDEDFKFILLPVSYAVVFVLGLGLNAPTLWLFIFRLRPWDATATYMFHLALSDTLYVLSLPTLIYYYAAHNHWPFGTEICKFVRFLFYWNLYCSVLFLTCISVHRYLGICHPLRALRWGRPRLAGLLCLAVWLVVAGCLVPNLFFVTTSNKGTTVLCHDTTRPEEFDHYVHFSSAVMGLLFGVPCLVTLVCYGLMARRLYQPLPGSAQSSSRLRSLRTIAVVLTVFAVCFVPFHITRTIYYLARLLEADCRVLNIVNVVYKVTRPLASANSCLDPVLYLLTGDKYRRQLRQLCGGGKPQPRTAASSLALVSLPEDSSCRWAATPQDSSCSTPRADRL", "conditions": "Herold et al. 2004"}},
  "data": [
    {"smiles": "Cc1ccc2c(c1)C=Cc1cc(C)ccc1C2c1cn(Cc2ccc(C(=O)Nc3nnn[nH]3)o2)c(=O)[nH]c1=S", "note": "[AR-C118925]", "values": [
      {"measurement": "IC50", "setting": "P2Y2 receptor", "result": "~6", "unit": "µM"}
    ]},
    {"smiles": "Cn1cc(C2c3ccc(Cl)cc3C=Cc3scnc32)c(=S)[nH]c1=O", "note": "(stereo not shown) [AR-C126313]", "values": [
      {"measurement": "IC50", "setting": "P2Y2 receptor", "result": "~6", "unit": "µM"}
    ]},
    {"smiles": "Nc1ncnc2c1ncn2[C@@H]1O[C@H](COP(=O)(O)OP(=O)(O)OP(=O)(O)O)[C@@H](O)[C@H]1O", "note": "[ATP]", "values": [
      {"measurement": "agonist versus antagonist action at the P2Y4 receptor", "setting": "rat P2Y4 receptor", "result": "potent full agonist"},
      {"measurement": "agonist versus antagonist action at the P2Y4 receptor", "setting": "human P2Y4 receptor", "result": "potent competitive antagonist"}
    ]}
  ]
}
